Experimental data taken from the NIST ThermoML archive (doi:10.1016/j.jct.2019.01.018).
± gives the expanded uncertainty stated by the source.

Test: xn = mol fraction of the nth substance listed
Settings: 298.15 K, 101.1 kPa, Liquid; for viscosity: Falling or rolling sphere viscometry; for mass density: Vibrating tube method

viscosity (x2 = 0.333) [mPa·s] | mass density (x2 = 0.333) [kg/m3] | viscosity (x1 = 0.333) [mPa·s] | mass density (x1 = 0.333) [kg/m3] | SMILES
1348.3 ± 320 | 1210.4 ± 16 | – | – | NC(N)=O [urea] + C[N+](C)(C)CCO.[Cl-]
– | – | 317.14 ± 69 | 1191.3 ± 16 | C[N+](C)(C)CCO.[Cl-] [choline chloride] + OCC(O)CO
– | – | 39.45 ± 8.3 | 1120.4 ± 15 | C[N+](C)(C)CCO.[Cl-] [choline chloride] + OCCO
